Each compound was assayed against PD-1/PD-L1 interaction (PD-1-Ig / PD-L1-His) (Homo sapiens (Human), UniProt Q9NZQ7) (assay: PD-1/PD-L1 Homogenous Time-Resolved Fluorescence (HTRF) binding assay). Conditions: PD-1/PD-L1 HTRF binding assay; numeric value; read-out: Range or IC50.
Summary of the method: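 HTRF detection used 1 nM europium-cryptate anti-Ig and 20 nM APC anti-His. Compounds first saw 10 nM PD-L1-His for 15 min, and 20 nM PD-1-Ig was then added for another 15 min. Buffer was dPBS plus 0.1% BSA and 0.05% Tween-20. All concentrations are final.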

Sequence of PD-1/PD-L1 interaction (PD-1-Ig / PD-L1-His) (Q9NZQ7 other isoform, or with tags, fused parts or gaps): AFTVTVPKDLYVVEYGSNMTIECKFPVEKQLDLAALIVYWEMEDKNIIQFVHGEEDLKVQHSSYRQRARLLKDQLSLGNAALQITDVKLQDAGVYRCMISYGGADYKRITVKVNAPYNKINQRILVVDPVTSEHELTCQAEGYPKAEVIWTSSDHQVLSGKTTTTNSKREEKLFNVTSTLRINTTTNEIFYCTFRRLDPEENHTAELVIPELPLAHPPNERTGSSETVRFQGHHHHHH

`CC(=O)NCCNCc1ccc(OCc2cccc(-c3ccccc3)c2C)cc1OCc1cccc(OC(F)(F)F)c1` [Example 1082, N-(2-((4-((2-methyl-[1,1′-biphenyl]-3-yl)methoxy)-2-((3-(trifluoromethoxy)benzyl)oxy)benzyl)amino)ethyl)acetamide] showed an IC50 of 828 nM.

Same assay, conditions: PD-1/PD-L1 HTRF binding assay; value given as range class; read-out: Range or IC50

`COc1cc(OCc2cccc(-c3ccccc3)c2C)cc(OCc2cccc(C#N)c2)c1CN[C@@H](C(=O)O)[C@H](C)O` [Example 1135, (2R,3S)-2-((2-((3-cyanobenzyl)oxy)-6-methoxy-4-((2-methyl-[1,1′-biphenyl]-3-yl)methoxy)benzyl)amino)-3-hydroxybutanoic acid] and `Cc1c(COc2ccc(CN[C@@H](CO)C(=O)O)c(OCc3cccc(C#N)c3)c2)cccc1-c1ccccc1` [Example 1018, (S)-2-((2-((3-cyanobenzyl)oxy)-4-((2-methyl-[1,1′-biphenyl]-3-yl)methoxy)benzyl)amino)-3-hydroxypropanoic acid] fall in the same range of IC50: 0.6 to 10 nM for the first, 0.6 to 10 nM for the second.

First: Cc1c(COc2cc(OCc3cncc(C#N)c3)c(CN3CCCC[C@H]3C(=O)NS(=O)(=O)N(C)C)cc2Cl)cccc1-c1ccc2c(c1)OCCO2 [Example 1257, (S)-1-(5-chloro-2-((5-cyanopyridin-3-yl)methoxy)-4-((3-(2,3-dihydrobenzo[b][1,4]dioxin-6-yl)-2-methylbenzyl)oxy)benzyl)-N—(N,N-dimethylsulfamoyl)piperidine-2-carboxamide]
Second: Cc1c(COc2cc(OCc3cncc(C#N)c3)c(CN3CCCC[C@H]3C(=O)NS(=O)(=O)c3cn(C)cn3)cc2Cl)cccc1-c1ccc2c(c1)OCCO2 [Example 1261, (S)-1-(5-chloro-2-((5-cyanopyridin-3-yl)methoxy)-4-((3-(2,3-dihydrobenzo[b][1,4]dioxin-6-yl)-2-methylbenzyl)oxy)benzyl)-N-((1-methyl-1H-imidazol-4-yl)sulfonyl)piperidine-2-carboxamide]
The IC50 of the first is higher: 10 to 100 nM for the first, 0.6 to 10 nM for the second. The second is the more potent here.

`CC(=O)NCCNCc1ccc(OCc2cccc(-c3ccccc3)c2C)cc1OCc1cccc(-n2cccc2)c1` [Example 1112, N-(2-((2-((3-(1H-pyrrol-1-yl)benzyl)oxy)-4-((2-methyl-[1,1′-biphenyl]-3-yl)methoxy)benzyl)amino)ethyl)acetamide] and `COc1cccc(COc2cc(OCc3cccc(-c4ccccc4)c3C)ccc2CNCCNC(C)=O)c1` [Example 1086, N-(2-((2-((3-methoxybenzyl)oxy)-4-((2-methyl-[1,1′-biphenyl]-3-yl)methoxy)benzyl)amino)ethyl)acetamide] fall in the same range of IC50: 100 to 20000 nM for the first, 100 to 20000 nM for the second.

`Cc1c(COc2cc(OCc3cccc(C#N)c3)c(CNCC(O)CN3CCCC3=O)cc2Cl)cccc1-c1ccc2c(c1)OCCO2` (stereo not drawn) [Example 1225] and `CC[C@@H](NCc1cc(Cl)c(OCc2cccc(-c3ccc4c(c3)OCCO4)c2C)cc1OCc1cccc(C#N)c1)C(=O)O` [Example 1193, (R)-2-((5-chloro-2-((3-cyanobenzyl)oxy)-4-((3-(2,3-dihydrobenzo[b][1,4]dioxin-6-yl)-2-methylbenzyl)oxy)benzyl)amino)butanoic acid] fall in the same range of IC50: 0.6 to 10 nM for the first, 0.6 to 10 nM for the second.

`Cc1cc(CN[C@](C)(CO)C(=O)O)c(OCc2ccc(F)c(C#N)c2)cc1OCc1cccc(-c2ccc3c(c2)OCCO3)c1C` [Example 1273, (R)-2-((2-((3-cyano-4-fluorobenzyl)oxy)-4-((3-(2,3-dihydrobenzo[b][1,4]dioxin-6-yl)-2-methylbenzyl)oxy)-5-methylbenzyl)amino)-3-hydroxy-2-methylpropanoic acid] and `Cc1c(COc2cc(OCc3cncc(C#N)c3)c(CN[C@@](C)(CO)C(=O)O)cc2Br)cccc1-c1ccc2c(c1)OCCO2` [Example 1321, (S)-2-(5-bromo-2-((5-cyanopyridin-3-yl)methoxy)-4-(3-(2,3-dihydrobenzo[b][1,4]dioxin-6-yl)-2-methylbenzyloxy)benzylamino)-3-hydroxy-2-methylpropanoic acid] fall in the same range of IC50: 0.6 to 10 nM for the first, 0.6 to 10 nM for the second.

`Cc1c(COc2ccc(CN[C@](C)(CO)C(=O)O)c(OCc3cccc(C(N)=O)c3)c2)cccc1-c1ccc2c(c1)OCCO2` [Example 1326, (R)-2-((2-((3-carbamoylbenzyl)oxy)-4-((3-(2,3-dihydrobenzo[b][1,4]dioxin-6-yl)-2-methylbenzyl)oxy)benzyl)amino)-3-hydroxy-2-methylpropanoic acid] and `C[C@@](CO)(NCc1ccc(OCc2cccc(-c3ccc4c(c3)OCCO4)c2Cl)cc1OCc1cccc(C#N)c1)C(=O)O` [Example 1149, (S)-2-(4-(2-chloro-3-(2,3-dihydrobenzo[b][1,4]dioxin-6-yl)benzyloxy)-2-(3-cyanobenzyloxy)benzylamino)-3-hydroxy-2-methylpropanoic acid] fall in the same range of IC50: 0.6 to 10 nM for the first, 0.6 to 10 nM for the second.

Compared with `Cc1c(COc2cc(OCc3cccc(C#N)c3)c(CNC(CO)(C(=O)O)C(C)C)cc2Cl)cccc1-c1ccc2c(c1)OCCO2` (stereo not drawn) [Example 1214, 2-((5-chloro-2-((3-cyanobenzyl)oxy)-4-((3-(2,3-dihydrobenzo[b][1,4]dioxin-6-yl)-2-methylbenzyl)oxy)benzyl)amino)-2-(hydroxymethyl)-3-methylbutanoic acid], `COC(C)(C)C(NCc1cc(Cl)c(OCc2cccc(-c3ccc4c(c3)OCCO4)c2C)cc1OCc1cccc(C#N)c1)C(=O)O` (stereo not drawn) [Example 1179, 2-((5-chloro-2-((3-cyanobenzyl)oxy)-4-((3-(2,3-dihydrobenzo[b][1,4]dioxin-6-yl)-2-methylbenzyl)oxy)benzyl)amino)-3-methoxy-3-methylbutanoic acid] is higher in IC50: 0.6 to 10 nM for the first, 10 to 100 nM for the second. The first is the more potent here.

Compared with `Cc1c(COc2cc(OCc3cncc(C#N)c3)c(CN3CCCC[C@H]3C(=O)O)cc2F)cccc1-c1ccc2c(c1)OCCO2` [Example 3002], `Cc1c(COc2cc(OCc3cccc(C#N)c3)c(CN3CCOCC3C(=O)O)cc2Cl)cccc1-c1ccc2c(c1)OCCO2` (stereo not drawn) [Example 1213, 4-(5-chloro-2-((3-cyanobenzyl)oxy)-4-((3-(2,3-dihydrobenzo[b][1,4]dioxin-6-yl)-2-methylbenzyl)oxy)benzyl)morpholine-3-carboxylic acid] is higher in IC50: 0.6 to 10 nM for the first, 10 to 100 nM for the second. The first is the more potent here.

`Cc1cc(CN[C@@](C)(CO)C(=O)O)c(OCCCCC#N)cc1OCc1cccc(-c2ccc3c(c2)OCCO3)c1C` [Example 1297, (S)-2-(2-(4-cyanobutoxy)-4-(3-(2,3-dihydrobenzo[b][1,4]dioxin-6-yl)-2-methylbenzyloxy)-5-methylbenzylamino)-3-hydroxy-2-methylpropanoic acid] and `Cc1cc(CN[C@@H](CO)C(=O)O)c(OCc2cncc(C#N)c2)cc1OCc1cccc(-c2ccc3c(c2)OCCO3)c1C` [Example 1284, (S)-2-(2-((5-cyanopyridin-3-yl)methoxy)-4-(3-(2,3-dihydrobenzo[b][1,4]dioxin-6-yl)-2-methylbenzyloxy)-5-methylbenzylamino)-3-hydroxypropanoic acid] fall in the same range of IC50: 0.6 to 10 nM for the first, 0.6 to 10 nM for the second.

Compared with `Cc1c(COc2ccc(CN[C@@](C)(CO)C(=O)O)c(OCc3cccc(C#N)c3)c2Cl)cccc1-c1ccc2c(c1)OCCO2` [Example 1238, (S)-2-((3-chloro-2-((3-cyanobenzyl)oxy)-4-((3-(2,3-dihydrobenzo[b][1,4]dioxin-6-yl)-2-methylbenzyl)oxy)benzyl)amino)-3-hydroxy-2-methylpropanoic acid], `Cc1c(COc2cc(OCc3cccc(C#N)c3)c(CN[C@@H](Cc3cncn3C)C(=O)O)cc2Cl)cccc1-c1ccc2c(c1)OCCO2` [Example 1207, (S)-2-((5-chloro-2-((3-cyanobenzyl)oxy)-4-((3-(2,3-dihydrobenzo[b][1,4]dioxin-6-yl)-2-methylbenzyl)oxy)benzyl)amino)-3-(1-methyl-1H-imidazol-5-yl)propanoic acid] is lower in IC50: 100 to 20000 nM for the first, 10 to 100 nM for the second.

First: Cc1c(COc2ccc(CNC(CO)(C(=O)O)C(C)C)c(OCc3cccc(C#N)c3)c2)cccc1-c1ccccc1 (stereo not drawn) [Example 1020, 2-((2-((3-cyanobenzyl)oxy)-4-((2-methyl-[1,1′-biphenyl]-3-yl)methoxy)benzyl)amino)-2-(hydroxymethyl)-3-methylbutanoic acid]
Second: CC(=O)NCCNCc1ccc(OCc2cccc(-c3ccccc3)c2C)cc1OCc1ccccc1Cl [Example 1053, N-(2-((2-((2-chlorobenzyl)oxy)-4-((2-methyl-[1,1′-biphenyl]-3-yl)methoxy)benzyl)amino)ethyl)acetamide]
The IC50 of the first is lower: 10 to 100 nM for the first, 100 to 20000 nM for the second.

`Cc1c(COc2cc(OCc3cccc(C#N)c3)c(CNC(Cc3c[nH]cn3)C(=O)O)cc2Cl)cccc1-c1ccc2c(c1)OCCO2` (stereo not drawn) [Example 1164, 2-((5-chloro-2-((3-cyanobenzyl)oxy)-4-((3-(2,3-dihydrobenzo[b][1,4]dioxin-6-yl)-2-methylbenzyl)oxy)benzyl)amino)-3-(1H-imidazol-4-yl)propanoic acid] and `Cc1c(COc2cc(OCc3cccc(C#N)c3)c(CN3CC[C@@H](O)[C@H]3C(=O)O)cc2Cl)cccc1-c1ccc2c(c1)OCCO2` [Example 1204, (2S,3R)-1-(5-chloro-2-((3-cyanobenzyl)oxy)-4-((3-(2,3-dihydrobenzo[b][1,4]dioxin-6-yl)-2-methylbenzyl)oxy)benzyl)-3-hydroxypyrrolidine-2-carboxylic acid] fall in the same range of IC50: 0.6 to 10 nM for the first, 0.6 to 10 nM for the second.

First: Cc1c(COc2cc(OCc3cncc(C#N)c3)c(CN[C@@H](CO)C(=O)O)cc2Br)cccc1-c1ccc2c(c1)OCCO2 [Example 1318, (S)-2-(5-bromo-2-((5-cyanopyridin-3-yl)methoxy)-4-(3-(2,3-dihydrobenzo[b][1,4]dioxin-6-yl)-2-methylbenzyloxy)benzylamino)-3-hydroxypropanoic acid]
Second: CC(=O)NCCNCc1ccc(OCc2cccc(-c3ccccc3)c2C)cc1OCc1cc(C)cc(C)c1 [Example 1065, N-(2-((2-((3,5-dimethylbenzyl)oxy)-4-((2-methyl-[1,1′-biphenyl]-3-yl)methoxy)benzyl)amino)ethyl)acetamide]
The IC50 of the first is lower: 0.6 to 10 nM for the first, 100 to 20000 nM for the second. The first is the more potent here.

Reference: patent US9850225B2, “Compounds useful as immunomodulators” (BRISTOL-MYERS SQUIBB COMPANY, priority 2014, dated 2017)
